Laboratory results as given in PMC10587159, “Biosynthesis and engineering of the nonribosomal peptides with a C-terminal putrescine” (Nature Communications, 2023).
One block for each compound: values may come before it. Non-standard residues stand in square brackets, D forms with d. Residues, ends and D or L forms follow the SMILES beside them. *: point of attachment. dMet(O) = CS(=O)CC[C@@H](N)C(=O)O; NH(CH2)4NH2 = NCCCCN*

Key:
[1] = test system: human cells Kasumi; test: MTT cytotoxicity assay, Kasumi; assay type: cell-based; settings: 24 h
Excerpt: (§1) The two human acute lymphoblastic leukemia cells K562 and Kasumi, two human breast adenocarcinoma cells MCF7 and MDA-MB-231, human hepatoma cell HepG-2, human lung adenocarcinoma cell A549, human gastric cancer cell SGC-7901, human colon cancer cell HCT-116, human ovarian cancer cell line SKOV3, or human lung epithelial normal cell 2B were obtained from Beyotime Biotechnology and utilized to test the cytotoxicity of compounds by MTT assays as previous study. The anti-inflammatory effect of the compounds was detected by the influence on the increase in the level of nitric oxide caused by lipopolysaccharide (LPS) based on the classic Griess method. RAW 264.7 cells (Shanghai Institutes for Biological Science) were seeded in 96-well plates and incubated for 24 h. Then, cells were treated with compounds 29, 29a, 31, and 31a (0-80 μM) for 30 min, followed by co-treatment with LPS ([…]) for another 24 h. The Nitric Oxide assay kit with Griess reagents (Beyotime, Lot: S0021, Shanghai, China) was used to examine cellular supernatant nitrite accumulation, which represents cellular NO levels. The OD value of 540 nm absorbance was detected with a microplate reader. Their authentication in the laboratory was performed regularly based on morphology and gene/protein expression. The tested micro-organisms including Gram-negative bacteria E. coli ATCC 35218 and Pseudomonas aeruginosa ATCC 27853, and Gram-positive bacteria Staphylococcus aureus ATCC 29213 and B. subtilis ATCC 6633, and fungi Candida albicans, Rhizoctonia solani and Aspergillus fumigatus were treated with different concentrations of compounds (1 μM, 10 μM, 100 μM) using Bauer-Kirby disk diffusion method to evaluate the antimicrobial activities.

[2] = test system: human lung adenocarcinoma cell A549; test: MTT cytotoxicity assay, A549; assay type: cell-based; settings: 24 h
Excerpt: as §1

[3] = test system: human acute lymphoblastic leukemia cells K562; test: cells; assay type: cell-based; settings: 24 h
Excerpt: as §1

[4] = test system: human breast adenocarcinoma cells MCF7; test: cells; assay type: cell-based; settings: 24 h
Excerpt: as §1

[5] = test system: human breast adenocarcinoma cells MDA-MB-231; test: cells; assay type: cell-based; settings: 24 h
Excerpt: as §1

[6] = test system: human colon cancer cell HCT-116; test: cells; assay type: cell-based; settings: 24 h
Excerpt: as §1

[7] = test system: human gastric cancer cell SGC-7901; test: cells; assay type: cell-based; settings: 24 h
Excerpt: as §1

[8] = test system: human hepatoma cell HepG-2; test: cells; assay type: cell-based; settings: 24 h
Excerpt: as §1

[9] = test system: human lung epithelial normal cell 2B; test: cells; assay type: cell-based; settings: 24 h
Excerpt: as §1

[10] = test system: S. brevitalea DSM 7029 wild type; test: Growth curve of DSM 7029 wild type with compounds (Bioscreen C); assay type: cell-based, Schlegelella brevitalea DSM 7029; settings: CYMG medium, compound 0.1 μg/μL, OD600 every hour for 42 h, Bioscreen C
Protocol: (§2) The growth curve was tested by Bioscreen C (Labsystems, Finland) as follow. Overnight culture was inoculated into 400 μL fresh CYMG medium in the ratio of 1:100 (the concentration of compounds was 0.1 μg/μL) and shook in normal speed. The OD600 value was gained in every hour for 42 h in total. Biofilm formation was measured at 18 h and 36 h respectively, as reported previously. In brief, the free-floating cells were removed, and the microtitre plate was washed with PBS (pH 7.4) after incubation for 18 h and 36 h. The biofilm was stained by adding 200 µL of crystal violet (0.1%) solution. Crystal violet solution was removed after 15 min and 200 µL of ethanol (95%) was added. The absorbance at OD600 was read using a microplate reader (Infinite M200, Tecan, Männedorf, Switzerland). Meanwhile, free-floating cells were used to test the secretion of pigment. The bacteria were removed and the supernatant was measured at OD600.

[11] = test system: S. brevitalea DSM 7029 wild type; test: Biofilm formation of DSM 7029 wild type with compounds (crystal violet); assay type: cell-based, Schlegelella brevitalea DSM 7029
Protocol: as §2

[12] = test system: A1 domain of CsA1T1 (GdnA); test: Adenylation activity of A1 domain (ATP/PPi exchange, pyrophosphate production assay); assay type: biochemical, Schlegelella brevitalea DSM 7029; settings: for relative activity of A1 domain for the activation of amino acids, Average: CsA1T1 1 μM, 10 mM amino acid, 2.5 mM ATP, pH 7.6, A360, L-Met = 100%, mean of n = 3; for selectivity of A1 domain for amino acids in words: response to reviewers on Supplementary Fig. 6a
Protocol: For pyrophosphate production assays, the reaction system contains 10 mM amino acid substrates, 2.5 mM ATP (Solarbio), 0.2 mM MESG (Medchemexpress), 1 U/mL purine nucleoside phosphorylase (Shanghai yuanye Bio-Technology Co., Ltd), 0.4 U/mL inorganic pyrophosphatase (Sigma), 150 mM hydroxylamine (Sigma) and 1 μM proteins in 100 μL buffer (50 mM Tris, 300 mM NaCl and 5 mM MgCl2, pH 7.6). The value was read at A360 in a SpectraMax M5 plate reader (Molecular Devices, Sunnyvale, California) in 96 well, clear-bottomed plates (Corning). A360 values were converted to pyrophosphate release, by comparing with a standard curve (KH2PO4 from 2 μM to 128 μM) for known quantities of pyrophosphate.

[13] = test system: C13 domain of GdnB fragments and mutants; test: Condensation of T12-linked L-Ala with Put or other diamines (yield of 24a-27a, LC-MS); assay type: biochemical, Schlegelella brevitalea DSM 7029; settings: Average of n = 3
Protocol: In vitro assays for the different enzymes of the C-terminal multi-domains were performed. Reaction buffer contained 80 μM protein, 3 μM Sfp from B. subtilis, 200 μM CoA, 2.5 mM L-Ala and 5 mM ATP was incubated at 30 °C for 30 min. Then, 2.5 mM diamines or polyamines (i.e. putrescine, 1,7-diaminoheptane, 1,6-diaminohexane, 1,5-diaminopentane, 1,2-diaminocyclohexane, spermine, and spermidine, respectively) was added to make final volume of 200 μL. The reaction was further incubated at 30 °C for 1 h or 4 h. Triple amount of cold methanol was added to quench the reaction, and the supernatant was dried by SpeedVac after removed the precipitate at 10,000 × g for 8 min. The reaction mixture was dissolved with 200 μL ddH2O, and then the mixture was derived with D-FDAA according to the procedure of the above Marfey’s analysis. The final reaction mixture was suspended using 100 μL 2 M HCl, which subsequently was dried by SpeedVac. Finally, the mixture dissolved with 100 μL MeOH to detect the target products (24a, 25a, 26a, and 27a) using LC‒MS analysis (5%‒95% ACN in 15 min).

IC50 [3]: > 20 µM
IC50 [4]: > 20 µM
IC50 [5]: > 20 µM
IC50 [6]: > 20 µM
IC50 [7]: > 20 µM
IC50 [8]: > 20 µM
SMILES: CC(C)[C@H](NC(=O)[C@@H]1CCCN1C(=O)[C@@H](CC(N)=O)NC(=O)[C@H](N)CC[S+](C)[O-])C(=O)N[C@H](Cc1ccccc1)C(=O)N1CCC[C@H]1C(=O)N[C@@H](Cc1c[nH]c2ccccc12)C(=O)N[C@@H](C(=O)N[C@@H](C)C(=O)N[C@H](C)C(=O)N[C@@H](CO)C(=O)N[C@@H](C)C(=O)NCCCCN)C(C)C (some centres unmarked) [Compound 2, Glidonin B] (H-[dMet(O)][dN]PV[dF]PW[dV]A[dA]SA-{NH(CH2)4NH2})
IC50 [1]: > 20 µM
IC50 [2]: > 20 µM
IC50 [9]: > 20 µM
effect on growth of DSM 7029 wild type in words [10]: no effect
effect on biofilm formation of DSM 7029 wild type in words ([11]; crystal violet staining): less effect on biofilm formation
biofilm formation 18 h, Average ([11]; relative to wild type treated with H2O = 100%, crystal violet 0.1%, OD600, mean of n = 3): 92.0189%
biofilm formation 36 h ([11]; relative to wild type treated with H2O = 100%, crystal violet 0.1%, OD600, replicate 1): 105.006%
biofilm formation 36 h ([11]; relative to wild type treated with H2O = 100%, crystal violet 0.1%, OD600, replicate 2): 81.9095%
biofilm formation 36 h ([11]; relative to wild type treated with H2O = 100%, crystal violet 0.1%, OD600, replicate 3): 97.572%

SMILES: N[C@@H](CS)C(=O)O [L-Cys]
relative activity of A1 domain for the activation of amino acids, Average [12]: 4.302%

SMILES: CC(N)C(=O)NCCCCCCCNc1cc(NC(C)C(N)=O)c([N+](=O)[O-])cc1[N+](=O)[O-] (centres unmarked) [Compound 27a]
L-Ala condensing with Put, 1,5-diaminopentane, 1,6-diaminohexane, and 1,7-diaminoheptane (Relative Yield of product) ([13]; protein A12T12): 100
L-Ala condensing with Put, 1,5-diaminopentane, 1,6-diaminohexane, and 1,7-diaminoheptane (Relative Yield of product) ([13]; protein A12T12C13A*T13): 248.895

SMILES: C[S+]([O-])CC[C@H](N)C(=O)O (stereo partly drawn) [L-MetO]
relative activity of A1 domain for the activation of amino acids, Average [12]: 74.5064%

SMILES: CC(N)C(=O)NCCCCCNc1cc(NC(C)C(N)=O)c([N+](=O)[O-])cc1[N+](=O)[O-] (centres unmarked) [Compound 25a]
L-Ala condensing with Put, 1,5-diaminopentane, 1,6-diaminohexane, and 1,7-diaminoheptane (Relative Yield of product) ([13]; protein A12T12): 100
L-Ala condensing with Put, 1,5-diaminopentane, 1,6-diaminohexane, and 1,7-diaminoheptane (Relative Yield of product) ([13]; protein A12T12C13A*T13): 794.339

SMILES: C[C@@H](O)[C@H](N)C(=O)O [L-Thr]
relative activity of A1 domain for the activation of amino acids, Average [12]: 9.697%

SMILES: NCCCC[C@H](N)C(=O)O [L-Lys]
selectivity of A1 domain for amino acids in words [12]: no activity

SMILES: N[C@@H](Cc1ccccc1)C(=O)O [L-Phe]
relative activity of A1 domain for the activation of amino acids, Average [12]: 16.3434%

SMILES: N[C@@H](Cc1c[nH]c2ccccc12)C(=O)O [L-Trp]
relative activity of A1 domain for the activation of amino acids, Average [12]: 8.022%

SMILES: C[C@H](N)C(=O)O [L-Ala]
relative activity of A1 domain for the activation of amino acids, Average [12]: 37.8571%
selectivity of A1 domain for amino acids in words [12]: broad selectivity

SMILES: CC[C@H](C)[C@H](N)C(=O)O [L-Ile]
relative activity of A1 domain for the activation of amino acids, Average [12]: 8.11%
selectivity of A1 domain for amino acids in words [12]: weaker selectivity
